PubChem BioAssay AID328 (DTP/NCI, 2004)
“And” between values parts separate entries of the source, which are not always exact repeats. Equal values may be shown once. Inconclusive results and toxic doses are left out.

Test system: BDF1 mice, P388 leukemia ip, median survival T/C
Assay: NCI In Vivo Anticancer Drug Screen. Data for tumor model P388 Leukemia (intraperitoneal) in B6D2F1 (BDF1) mice
Settings: endpoint: median survival time, higher = longer survival
Procedure, shortened: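 In tumour-bearing mice, survival after compound treatment is set against the vehicle group and given as a quotient.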

[1] = dose: 50.0 mg/kg/injection, schedule: Q01DX009 (ip), vehicle: saline with Tween-80
[2] = dose: 75.0 mg/kg/injection, schedule: Q01DX009 (ip), vehicle: saline with Tween-80
[3] = dose: 100.0 mg/kg/injection, schedule: Q01DX009 (ip), vehicle: saline with Tween-80
[4] = dose: 25.0 mg/kg/injection, schedule: Q01DX001 (ip), vehicle: Klucel (hydroxypropylcellulose) (HPC)
[5] = dose: 100.0 mg/kg/injection, schedule: Q01DX001 (ip), vehicle: Klucel (hydroxypropylcellulose) (HPC)
[6] = dose: 200.0 mg/kg/injection, schedule: Q01DX009 (ip), vehicle: saline with Tween-80
[7] = dose: 25.0 mg/kg/injection, schedule: Q01DX009 (ip), vehicle: saline
[8] = dose: 25.0 mg/kg/injection, schedule: Q04DX003 (ip), vehicle: saline
[9] = dose: 50.0 mg/kg/injection, schedule: Q01DX009 (ip), vehicle: saline
[10] = dose: 50.0 mg/kg/injection, schedule: Q04DX003 (ip), vehicle: saline
[11] = dose: 400.0 mg/kg/injection, schedule: Q01DX001 (ip), vehicle: saline with Tween-80
[12] = dose: 100.0 mg/kg/injection, schedule: Q01DX009 (ip), vehicle: saline
[13] = dose: 400.0 mg/kg/injection, schedule: Q04DX003 (ip), vehicle: saline with Tween-80

With `Cc1ccc2cc3c(ccc4ccccc43)c3c2c1CC3` as the compound, how does the T/C (dose: 7.4 mg/kg/injection, schedule: Q01DX009 (ip), vehicle: saline with Tween-80) read?
The T/C was 117 % of control.

What about the T/C (dose: 25.0 mg/kg/injection, schedule: Q01DX009 (ip), vehicle: saline with Tween-80) of the same compound?
The T/C was 122 % of control.

What about the T/C [1] of the same compound?
Its T/C is 154 % of control.

What about the T/C [2] of the same compound?
The T/C was 122 % of control.

What about the T/C (dose: 88.0 mg/kg/injection, schedule: Q04DX003 (ip), vehicle: saline with Tween-80) of the same compound?
The T/C was 118 % of control.

What about the T/C [3] of the same compound?
The T/C was 162 % of control.

What about the T/C (dose: 132.0 mg/kg/injection, schedule: Q04DX003 (ip), vehicle: saline with Tween-80) of the same compound?
The T/C was 118 % of control.

And the T/C (dose: 300.0 mg/kg/injection, schedule: Q01DX009 (ip), vehicle: saline with Tween-80)?
Its T/C is 163 % of control.

And the T/C (dose: 300.0 mg/kg/injection, schedule: Q04DX003 (ip), vehicle: saline with Tween-80)?
Its T/C is 118 % of control.

With `OCc1ccccc1[S+]1OCc2ccccc21` (centres undefined) as the compound, how does the T/C (dose: 50.0 mg/kg/injection, schedule: Q01DX009 (ip), vehicle: other) read?
Its T/C is 104 % of control.

What about the T/C (dose: 100.0 mg/kg/injection, schedule: Q01DX009 (ip), vehicle: other) of the same compound?
Its T/C is 97 % of control.

What about the T/C (dose: 200.0 mg/kg/injection, schedule: Q01DX009 (ip), vehicle: other) of the same compound?
Its T/C is 108 % of control.

Which T/C (dose: 1.0 mg/kg/injection, schedule: Q01DX009 (ip), vehicle: other) does the source give for `CCCCCc1cc(/C=C2/N=C(c3ccc[nH]3)C=C2OC)[nH]c1C` here?
The T/C was 118 % of control.

What about the T/C (dose: 2.0 mg/kg/injection, schedule: Q01DX009 (ip), vehicle: other) of the same compound?
The T/C was 118 % of control.

Which T/C (dose: 5.0 mg/kg/injection, schedule: Q01DX010 (ip), vehicle: carboxymethylcellulose (CMC)) does the source give for `CC(=O)OC1CC(OC2C(O)CC(OC3C(O)CC(OC4CCC5(C)C(CCC6C5CCC5(C)C(C7=CC(=O)OC7)CCC65O)C4)OC3C)OC2C)OC(C)C1OC1OC(CO)C(O)C(O)C1O` (centres undefined) here?
Its T/C is 90 % of control.

For `S=c1[nH]nc(NC2CCCCC2)s1`, which T/C [4] is on record?
The T/C was 100 % of control.

And the T/C (dose: 50.0 mg/kg/injection, schedule: Q01DX001 (ip), vehicle: Klucel (hydroxypropylcellulose) (HPC))?
The T/C was 112 % of control.

What about the T/C [5] of the same compound?
Its T/C is 87 % of control.

What does the source list for `CCOC(=O)C1SC(=S)N(C)C1=O` (centres undefined)?
T/C [1]: 94 % of control; T/C [3]: 100 % of control; T/C [6]: 100 % of control

What does the source list for `CC1=CC(=O)OC2(C1)CC1CCC2CN1C` (centres undefined)?
T/C (dose: 12.5 mg/kg/injection, schedule: Q01DX009 (ip), vehicle: saline): 110 % of control; T/C [7]: 100 % of control; T/C [8]: 100 % of control; T/C [9]: 100 % of control; T/C [10]: 104 % of control

Which T/C (dose: 100.0 mg/kg/injection, schedule: Q01DX001 (ip), vehicle: saline with Tween-80) does the source give for `c1coc(NC2CCCCC2)n1` here?
Its T/C is 90 % of control.

What about the T/C (dose: 200.0 mg/kg/injection, schedule: Q01DX001 (ip), vehicle: saline with Tween-80) of the same compound?
The T/C was 95 % of control.

And the T/C [11]?
Its T/C is 95 % of control.

What does the source list for `O=C(NO)c1ccncc1`?
T/C [12]: 120 % of control; T/C (dose: 100.0 mg/kg/injection, schedule: Q01DX010 (ip), vehicle: water): 90 % of control; T/C (dose: 132.0 mg/kg/injection, schedule: Q01DX009 (ip), vehicle: saline): 118 % of control; T/C (dose: 200.0 mg/kg/injection, schedule: Q01DX006 (ip), vehicle: water): 90 % of control; T/C (dose: 200.0 mg/kg/injection, schedule: Q01DX009 (ip), vehicle: saline): 118 % of control and 120 % of control; T/C (dose: 200.0 mg/kg/injection, schedule: Q01DX010 (ip), vehicle: water): 118 % of control; T/C (dose: 200.0 mg/kg/injection, schedule: Q#A X020 (ip), vehicle: water): 100 % of control; T/C (dose: 222.0 mg/kg/injection, schedule: Q01DX010 (ip), vehicle: water): 113 % of control; T/C (dose: 222.0 mg/kg/injection, schedule: Q02DX005 (ip), vehicle: water): 113 % of control; T/C (dose: 300.0 mg/kg/injection, schedule: Q01DX009 (ip), vehicle: saline): 118 % of control; T/C (dose: 300.0 mg/kg/injection, schedule: Q#A X020 (ip), vehicle: water): 118 % of control; T/C (dose: 335.0 mg/kg/injection, schedule: Q02DX005 (ip), vehicle: water): 109 % of control; T/C (dose: 400.0 mg/kg/injection, schedule: Q01DX006 (ip), vehicle: water): 90 % of control; T/C (dose: 400.0 mg/kg/injection, schedule: Q01DX010 (ip), vehicle: water): 150 % of control; T/C (dose: 500.0 mg/kg/injection, schedule: Q01DX001 (ip), vehicle: water): 109 % of control; T/C (dose: 600.0 mg/kg/injection, schedule: Q01DX006 (ip), vehicle: water): 100 % of control; T/C (dose: 600.0 mg/kg/injection, schedule: Q01DX010 (ip), vehicle: water): 154 % of control; T/C (dose: 750.0 mg/kg/injection, schedule: Q01DX010 (ip), vehicle: water): 154 % of control; T/C (dose: 750.0 mg/kg/injection, schedule: Q02DX005 (ip), vehicle: water): 163 % of control; T/C (dose: 800.0 mg/kg/injection, schedule: Q01DX006 (ip), vehicle: water): 90 % of control; T/C (dose: 1000.0 mg/kg/injection, schedule: Q01DX001 (ip), vehicle: water): 113 % of control; T/C (dose: 1500.0 mg/kg/injection, schedule: Q01DX001 (ip), vehicle: water): 100 % of control

Which results are given for `COc1cc2ccncc2cc1OCc1ccccc1`?
T/C (dose: 6.25 mg/kg/injection, schedule: Q04DX003 (ip), vehicle: saline): 100 % of control; T/C (dose: 12.5 mg/kg/injection, schedule: Q04DX003 (ip), vehicle: saline): 100 % of control and 118 % of control; T/C [7]: 86 % of control; T/C [8]: 93 % of control and 103 % of control; T/C [9]: 92 % of control; T/C [10]: 98 % of control and 118 % of control; T/C [12]: 104 % of control; T/C (dose: 100.0 mg/kg/injection, schedule: Q04DX003 (ip), vehicle: saline): 97 % of control and 100 % of control; T/C (dose: 200.0 mg/kg/injection, schedule: Q04DX003 (ip), vehicle: saline): 93 % of control and 120 % of control; T/C (dose: 400.0 mg/kg/injection, schedule: Q04DX003 (ip), vehicle: saline): 106 % of control

For `ClCCN(CCCl)c1ccc(/C=C\c2ccnc3ccccc23)cc1`, which T/C [3] is on record?
The T/C was 104 % of control.

And the T/C [6]?
The T/C was 86 % of control.

`OC(OCCCCCCOC(O)C(Cl)(Cl)Cl)C(Cl)(Cl)Cl` (centres undefined) was tested. Which T/C (dose: 100.0 mg/kg/injection, schedule: Q04DX003 (ip), vehicle: saline with Tween-80) did it give?
Its T/C is 95 % of control.

What about the T/C (dose: 200.0 mg/kg/injection, schedule: Q04DX003 (ip), vehicle: saline with Tween-80) of the same compound?
The T/C was 95 % of control.

And the T/C [13]?
Its T/C is 90 % of control.

`CC12CC[C]([Hg][I])(CC1)C2(C)C` was tested. Which T/C (dose: 3.13 mg/kg/injection, schedule: Q01DX009 (ip), vehicle: saline with Tween-80) did it give?
Its T/C is 121 % of control.

And the T/C (dose: 6.25 mg/kg/injection, schedule: Q01DX009 (ip), vehicle: saline with Tween-80)?
Its T/C is 121 % of control.

And the T/C (dose: 12.5 mg/kg/injection, schedule: Q01DX009 (ip), vehicle: saline with Tween-80)?
The T/C was 114 % of control.

With `O=c1ccccc(Br)c1O` as the compound, how does the T/C [4] read?
Its T/C is 110 % of control.

And the T/C [5]?
The T/C was 121 % of control.

Which results are given for `CC(CNC(=O)CCOS(C)(=O)=O)NC(=O)CCOS(C)(=O)=O` (centres undefined)?
T/C (dose: 264.0 mg/kg/injection, schedule: Q04DX003 (ip), vehicle: saline with Tween-80): 213 % of control; T/C (dose: 267.0 mg/kg/injection, schedule: Q04DX003 (ip), vehicle: saline with Tween-80): 183 % of control; T/C [13]: 208 % of control and 209 % of control; T/C (dose: 500.0 mg/kg/injection, schedule: Q04DX003 (ip), vehicle: saline with Tween-80): 212 % of control; T/C (dose: 600.0 mg/kg/injection, schedule: Q04DX003 (ip), vehicle: saline with Tween-80): 109 % of control

Which results are given for `O=[N+]([O-])c1ccc(Oc2ccc(-c3ccccc3)cc2)c(Cl)c1`?
T/C (dose: 18.75 mg/kg/injection, schedule: Q01DX009 (ip), vehicle: saline with Tween-80): 92 % of control; T/C [2]: 93 % of control

`COC(=O)c1c(-c2ccccc2)c(-c2ccccc2)nn(-c2ccccc2)c1=O` was tested. Which T/C [11] did it give?
The T/C was 87 % of control.
